Patent US20090246169A1, “INDOLOPYRIDINES AS EG5 KINESIN MODULATORS” (priority 2006, published 2009)

Test system: RKO p21 colon adenocarcinoma cells, uninduced (proliferating)
Experiment: Alamar Blue cell viability assay, RKO p21 uninduced (proliferating)
Type: cell-based
Conditions: Homo sapiens; anti-proliferative/cytotoxic activity, 72 hours, without Ponasterone A; read-out: −log EC50 [mol/l] RKO p21 uninduced (proliferating) (converted)
Experimental: The anti-proliferative/cytotoxic activity of the compounds described herein can be tested on subclones of RKO human colon adenocarcinoma cells (Schmidt et al., Oncogene 19, 2423-2429; 2000) using the Alamar Blue cell viability assay (described in O'Brien et al. Eur J Biochem 267, 5421-5426, 2000). The compounds are dissolved as 10 mM solutions in DMSO and subsequently diluted in semi-logarithmic steps. DMSO dilutions are further diluted 1:100 into Dulbecco's modified Eagle's medium (DMEM) containing 10% fetal calf serum to a final concentration twice as much as the final concentration in the test. RKO subclones are seeded into 96 well flat bottom plates at a density of 4000 cells per well in a volume of 50 μl per well. 24 hours after seeding the 50 μl each of the compound dilutions in DMEM medium are added into each well of the 96 well plate. Each compound dilution is tested as triplicates. Wells containing untreated control cells are filled with 50 μl DMEM medium containing 1% DMSO. The cells are then incubated with the substances for 72 hours at 37° C. in a humidified atmosphere containing 5% carbon dioxide. To determine the viability of the cells, 10 μl of an Alamar Blue solution (Biosource) are added and the fluorescence is measured at an extinction of 544 nm and an emission of 590 nm. For the calculation of the cell viability the emission value from untreated cells is set as 100% viability and the emission rates of treated cells are set in relation to the values of untreated cells. Viabilities are expressed as % values. The Graphpad Prism program is used for the calculation of EC50 values for anti-proliferative/cytotoxic activity out of the obtained dose-response curves.
To determine the cell cycle specific mode of action, subclones of RKO colon adenocarcinoma cells (RKOp21 or RKOp27 as described by Schmidt et al. in Oncogene 19, 2423-2429; 2000) are seeded into 96 well flat bottom plates at a density of 16000 cells per well in a volume of 50 μl per well in DMEM growth medium with 10% FCS containing 10 μM Ponasterone A. 24 hours after seeding the 50 μl each of the compound dilutions in DMEM medium are added into each well of the 96-well plate. Each compound dilution is tested as triplicates. Wells containing untreated control cells are filled with 50 μl DMEM medium containing 1% DMSO. The cells are then incubated with the substances for 72 hours at 37° C. in a humidified atmosphere containing 5% carbon dioxide. To determine the viability of the cells, 10 μl of an Alamar Blue solution (Biosource) are added and the fluorescence is measured at an extinction of 544 nm and an emission of 590 nm. For the calculation of the cell viability the emission value from untreated cells is set as 100% viability and the emission rates of treated cells are set in relation to the values of untreated cells. Viabilities are expressed as % values. The Graphpad Prism program (GraphPad Software, Inc) is used for the calculation of EC50 values out of the obtained dose-response curves. Viability is compared of proliferating cells grown in the absence of the inducer Ponasterone A, versus viability of cells arrested by the expression of ectopic p27Kip1 induced by Ponasterone A.
Representative values for anti-proliferation/cytotoxicity [measured as −log EC50 (mol/l)] determined in the aforementioned assays follow from the following tables B1 and B2, in which the numbers of the compounds correspond to the numbers of the examples.

SMILES | EC50
COc1ccc2[nH]c3c(c2c1)C[C@@]1(C)C(=O)N(CCNC2CC2)C(=O)N1[C@@H]3c1ccccc1 (racemic) [Example 49, (3aSR, 10RS)-2-(2-Cyclo-propylamino-ethyl)-6-methoxy-3a-methyl-10-phenyl-3a,4,9,10-tetrahydro-2,9,10a-triaza-cyclopenta [b]fluorene-1,3-dione] | ≤ 1000 nM
COc1ccc2[nH]c3c(c2c1)C[C@@]1(C)C(=O)N(CCCN2CCC(C)CC2)C(=O)N1[C@@H]3c1ccccc1 (racemic) [Example 66, (3aSR, 10RS)-6-Methoxy-3a-methyl-2-[3-(4-methyl-piperidin-1-yl)-propyl]-10-phenyl-3a,4,9,10-tetrahydro-2,9,10a-triaza-cyclopenta[b] fluorene-1,3-dione] | ≤ 1000 nM
COc1ccc2[nH]c3c(c2c1)C[C@@]1(C)C(=O)N(CCNCC2CC2)C(=O)N1[C@@H]3c1ccccc1 (racemic) [Example 25, (3aSR, 10RS)-2-[2-(Cyclo-propylmethyl-amino)-ethyl]-6-methoxy-3a-methyl-10-phenyl-3a,4,9,10-tetrahydro-2,9,10a-triaza-cyclopenta [b]fluorene-1,3-dione] | ≤ 1000 nM
COc1ccc2[nH]c3c(c2c1)C[C@@]1(C)C(=O)N(CCCN)C(=O)N1[C@@H]3c1ccccc1 (racemic) [Example 7, (3aSR,10RS)-2-(3-Amino-propyl)-6-methoxy-3a-methyl-10-phenyl-3a,4,9,10-tetrahydro-2,9,10a-triaza-cyclopenta[b]fluorene-1,3-dione] | ≤ 1000 nM
COc1ccc2[nH]c3c(c2c1)C[C@@]1(C)C(=O)N(CCCNCCO)C(=O)N1[C@@H]3c1ccccc1 (racemic) [Example 75, (3aSR, 10RS)-2-[3-(2-Hydroxy-ethylamino)-propyl]-6-methoxy-3a-methyl-10-phenyl-3a,4,9,10-tetrahydro-2,9,10a-triaza-cyclopenta[b] fluorene-1,3-dione] | ≤ 1000 nM
COc1ccc2[nH]c3c(c2c1)C[C@@]1(C)C(=O)N(CCN2CCN(C)CC2)C(=O)N1[C@@H]3c1ccccc1 (racemic) [Example 34, (3aSR, 10RS)-6-Methoxy-3a-methyl-2-[2-(4-methyl-piperazin-1-yl)-ethyl]-10-phenyl-3a,4,9,10-tetrahydro-2,9,10a-triaza-cyclopenta[b] fluorene-1,3-dione] | ≤ 1000 nM
CC[C@@]12Cc3c([nH]c4ccc(OC)cc34)[C@@H](c3ccccc3)N1C(=O)N(CCN(C)C)C2=O (racemic) [Example 5, (3aSR,10RS)-2-(2-Dimethylamino-ethyl)-3a-ethyl-6-methoxy-10-phenyl-3a,4,9,10-tetrahydro-2,9,10a-triaza-cyclopenta[b]fluorene-1,3-dione] | ≤ 1000 nM
CC[C@@]12Cc3c([nH]c4ccc(OC)cc34)[C@@H](c3ccccc3)N1C(=O)N(CCCN(C)C)C2=O (racemic) [Example 6, (3aSR,10RS)-2-(3-Dimethylamino-propyl)-3a-ethyl-6-methoxy-10-phenyl-3a,4,9,10-tetrahydro-2,9,10a-triaza-cyclopenta[b]fluorene-1,3-dione] | ≤ 1000 nM
COc1ccc2[nH]c3c(c2c1)C[C@@]1(C)C(=O)N(CCCN2CC=CC2)C(=O)N1[C@@H]3c1ccccc1 (racemic) [Example 64, (3aSR, 10RS)-2-[3-(2,5-Dihydro-pyrrol-1-yl)-propyl]-6-methoxy-3a-methyl-10-phenyl-3a,4,9,10-tetrahydro-2,9,10a-triaza-cyclopenta [b]fluorene-1,3-dione] | ≤ 1000 nM
COc1ccc2[nH]c3c(c2c1)C[C@@]1(C)C(=O)N(CCN2CCCCC2)C(=O)N1[C@@H]3c1ccccc1 (racemic) [Example 32, (3aSR, 10RS)-6-Methoxy-3a-methyl-10-phenyl-2-(2-piperidin-1-yl-ethyl)-3a,4,9,10-tetrahydro-2,9,10a-triaza-cyclopenta[b]fluorene-1,3-dione] | ≤ 1000 nM
